Key:
[1] = DRUGMATRIX: Serotonin (5-Hydroxytryptamine) 5-HT3 radioligand binding (ligand: [3H] GR-65630); format: cell membranes, Membrane; details: hek293; Not Active = under 50% inhibition at 10 µM
[2] = molecular target: T1, Thromboxane-A synthase (Homo sapiens, UniProt P24557); test: biochemical; format: tissue-based, Platelet; details: platelet;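 note: enzyme inhibition assay with PGH2 supplied as substrate; in other assays of this panel Not Active means under 50% inhibition at 10 µM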
T1 sequence (P24557 whole entry): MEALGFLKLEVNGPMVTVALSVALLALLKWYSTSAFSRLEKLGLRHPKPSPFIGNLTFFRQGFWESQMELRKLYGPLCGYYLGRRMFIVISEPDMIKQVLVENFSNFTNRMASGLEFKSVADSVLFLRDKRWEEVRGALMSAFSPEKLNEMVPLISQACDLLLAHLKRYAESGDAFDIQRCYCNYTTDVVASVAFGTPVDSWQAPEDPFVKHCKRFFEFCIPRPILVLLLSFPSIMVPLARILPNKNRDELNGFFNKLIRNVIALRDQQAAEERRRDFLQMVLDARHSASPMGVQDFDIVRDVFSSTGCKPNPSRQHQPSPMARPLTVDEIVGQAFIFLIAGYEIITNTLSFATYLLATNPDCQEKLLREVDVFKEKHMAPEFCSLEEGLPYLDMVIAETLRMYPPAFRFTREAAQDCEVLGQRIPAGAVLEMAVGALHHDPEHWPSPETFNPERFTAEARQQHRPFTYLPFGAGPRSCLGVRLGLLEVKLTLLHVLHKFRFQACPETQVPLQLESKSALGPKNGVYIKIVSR

[3] = molecular target: Cannabinoid receptor 1 (Homo sapiens, UniProt P21554); format: cell membranes, Chem-1, Membrane; details: chem-1; note: in other assays of this panel Not Active means under 50% inhibition at 10 µM
[4] = DRUGMATRIX: Leukotriene, BLT (LTB4) radioligand binding (ligand: [3H]LTB4); format: cell membranes, Membrane; details: u-937; Not Active = under 50% inhibition at 10 µM
[5] = molecular target: Nitric oxide synthase 1 (Rattus norvegicus, UniProt P29476); format: tissue-based, Cerebellum; note: in other assays of this panel Not Active means under 50% inhibition at 10 µM
[6] = molecular target: T2, Cathepsin G (Homo sapiens, UniProt P08311); format: tissue-based; details: neutrophil;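 note: inhibition of Cathepsin G enzyme activity, tested on an AMC-conjugated peptide substrate; in other assays of this panel Not Active means under 50% inhibition at 10 µM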
T2 sequence (P08311 whole entry): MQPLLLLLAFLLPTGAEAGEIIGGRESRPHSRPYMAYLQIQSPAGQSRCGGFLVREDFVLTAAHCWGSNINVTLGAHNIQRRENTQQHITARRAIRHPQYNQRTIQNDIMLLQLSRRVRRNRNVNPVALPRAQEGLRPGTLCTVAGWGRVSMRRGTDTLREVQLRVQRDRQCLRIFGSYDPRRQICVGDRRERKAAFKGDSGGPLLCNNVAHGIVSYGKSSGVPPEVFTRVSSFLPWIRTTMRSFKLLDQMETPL

[7] = molecular target: Cytochrome P450 2C9 (Homo sapiens, UniProt P11712); details: bti-tn-5b1-4; note: in other assays of this panel Not Active means under 50% inhibition at 10 µM
[8] = molecular target: T3, Estrogen receptor (Homo sapiens, UniProt P03372); details: sf9; note: in other assays of this panel Not Active means under 50% inhibition at 10 µM
T3 sequence (P03372 whole entry): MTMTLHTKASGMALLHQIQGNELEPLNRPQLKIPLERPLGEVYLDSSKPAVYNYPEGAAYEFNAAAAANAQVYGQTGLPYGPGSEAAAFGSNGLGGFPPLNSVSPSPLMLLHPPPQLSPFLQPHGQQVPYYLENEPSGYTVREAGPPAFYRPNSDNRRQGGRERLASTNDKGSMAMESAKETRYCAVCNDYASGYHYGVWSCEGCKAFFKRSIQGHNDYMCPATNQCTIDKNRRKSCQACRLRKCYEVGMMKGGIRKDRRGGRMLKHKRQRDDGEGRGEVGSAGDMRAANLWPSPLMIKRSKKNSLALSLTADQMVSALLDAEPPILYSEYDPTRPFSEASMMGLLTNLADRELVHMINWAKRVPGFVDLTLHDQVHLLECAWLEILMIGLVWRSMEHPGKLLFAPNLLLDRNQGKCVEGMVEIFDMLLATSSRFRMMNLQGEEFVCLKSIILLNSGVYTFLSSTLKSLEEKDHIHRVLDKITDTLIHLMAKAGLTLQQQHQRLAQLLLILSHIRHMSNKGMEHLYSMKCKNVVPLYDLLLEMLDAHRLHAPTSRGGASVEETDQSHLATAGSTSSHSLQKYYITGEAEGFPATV

[9] = molecular target: Voltage-gated inwardly rectifying potassium channel KCNH2 (Homo sapiens, UniProt Q12809); details: hek293; note: in other assays of this panel Not Active means under 50% inhibition at 10 µM
Voltage-gated inwardly rectifying potassium channel KCNH2, sequence (Q12809 whole entry): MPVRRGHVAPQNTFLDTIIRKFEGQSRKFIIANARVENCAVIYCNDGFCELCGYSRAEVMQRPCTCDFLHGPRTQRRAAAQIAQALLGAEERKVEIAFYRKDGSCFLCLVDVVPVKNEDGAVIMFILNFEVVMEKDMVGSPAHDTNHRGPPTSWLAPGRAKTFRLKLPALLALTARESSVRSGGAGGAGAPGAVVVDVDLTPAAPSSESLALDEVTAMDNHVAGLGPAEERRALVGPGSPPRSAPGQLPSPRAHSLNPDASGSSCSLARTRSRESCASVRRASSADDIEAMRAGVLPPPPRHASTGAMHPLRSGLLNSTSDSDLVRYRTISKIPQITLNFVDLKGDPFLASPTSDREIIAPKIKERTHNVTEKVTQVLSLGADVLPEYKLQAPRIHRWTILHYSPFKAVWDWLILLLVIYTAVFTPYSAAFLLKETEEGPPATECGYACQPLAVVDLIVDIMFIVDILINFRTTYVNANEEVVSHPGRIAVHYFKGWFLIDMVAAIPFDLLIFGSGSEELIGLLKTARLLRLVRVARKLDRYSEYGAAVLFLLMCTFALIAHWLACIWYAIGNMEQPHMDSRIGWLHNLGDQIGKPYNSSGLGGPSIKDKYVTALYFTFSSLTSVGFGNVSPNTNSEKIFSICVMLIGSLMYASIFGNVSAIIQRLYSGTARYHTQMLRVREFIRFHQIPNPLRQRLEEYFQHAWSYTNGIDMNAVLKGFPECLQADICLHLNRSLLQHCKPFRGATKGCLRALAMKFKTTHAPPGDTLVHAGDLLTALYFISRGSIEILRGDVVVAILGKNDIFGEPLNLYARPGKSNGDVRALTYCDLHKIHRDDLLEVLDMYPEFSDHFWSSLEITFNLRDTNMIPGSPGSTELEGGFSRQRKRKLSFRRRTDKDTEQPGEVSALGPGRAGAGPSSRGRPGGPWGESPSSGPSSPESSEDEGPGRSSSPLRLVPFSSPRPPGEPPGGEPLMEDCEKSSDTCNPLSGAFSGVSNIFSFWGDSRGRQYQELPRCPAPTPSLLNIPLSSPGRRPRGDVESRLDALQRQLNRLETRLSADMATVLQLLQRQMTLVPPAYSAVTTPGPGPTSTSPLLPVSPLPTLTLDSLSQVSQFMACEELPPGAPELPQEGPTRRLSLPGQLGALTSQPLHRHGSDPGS

Nitric oxide synthase 1, sequence (P29476 whole entry): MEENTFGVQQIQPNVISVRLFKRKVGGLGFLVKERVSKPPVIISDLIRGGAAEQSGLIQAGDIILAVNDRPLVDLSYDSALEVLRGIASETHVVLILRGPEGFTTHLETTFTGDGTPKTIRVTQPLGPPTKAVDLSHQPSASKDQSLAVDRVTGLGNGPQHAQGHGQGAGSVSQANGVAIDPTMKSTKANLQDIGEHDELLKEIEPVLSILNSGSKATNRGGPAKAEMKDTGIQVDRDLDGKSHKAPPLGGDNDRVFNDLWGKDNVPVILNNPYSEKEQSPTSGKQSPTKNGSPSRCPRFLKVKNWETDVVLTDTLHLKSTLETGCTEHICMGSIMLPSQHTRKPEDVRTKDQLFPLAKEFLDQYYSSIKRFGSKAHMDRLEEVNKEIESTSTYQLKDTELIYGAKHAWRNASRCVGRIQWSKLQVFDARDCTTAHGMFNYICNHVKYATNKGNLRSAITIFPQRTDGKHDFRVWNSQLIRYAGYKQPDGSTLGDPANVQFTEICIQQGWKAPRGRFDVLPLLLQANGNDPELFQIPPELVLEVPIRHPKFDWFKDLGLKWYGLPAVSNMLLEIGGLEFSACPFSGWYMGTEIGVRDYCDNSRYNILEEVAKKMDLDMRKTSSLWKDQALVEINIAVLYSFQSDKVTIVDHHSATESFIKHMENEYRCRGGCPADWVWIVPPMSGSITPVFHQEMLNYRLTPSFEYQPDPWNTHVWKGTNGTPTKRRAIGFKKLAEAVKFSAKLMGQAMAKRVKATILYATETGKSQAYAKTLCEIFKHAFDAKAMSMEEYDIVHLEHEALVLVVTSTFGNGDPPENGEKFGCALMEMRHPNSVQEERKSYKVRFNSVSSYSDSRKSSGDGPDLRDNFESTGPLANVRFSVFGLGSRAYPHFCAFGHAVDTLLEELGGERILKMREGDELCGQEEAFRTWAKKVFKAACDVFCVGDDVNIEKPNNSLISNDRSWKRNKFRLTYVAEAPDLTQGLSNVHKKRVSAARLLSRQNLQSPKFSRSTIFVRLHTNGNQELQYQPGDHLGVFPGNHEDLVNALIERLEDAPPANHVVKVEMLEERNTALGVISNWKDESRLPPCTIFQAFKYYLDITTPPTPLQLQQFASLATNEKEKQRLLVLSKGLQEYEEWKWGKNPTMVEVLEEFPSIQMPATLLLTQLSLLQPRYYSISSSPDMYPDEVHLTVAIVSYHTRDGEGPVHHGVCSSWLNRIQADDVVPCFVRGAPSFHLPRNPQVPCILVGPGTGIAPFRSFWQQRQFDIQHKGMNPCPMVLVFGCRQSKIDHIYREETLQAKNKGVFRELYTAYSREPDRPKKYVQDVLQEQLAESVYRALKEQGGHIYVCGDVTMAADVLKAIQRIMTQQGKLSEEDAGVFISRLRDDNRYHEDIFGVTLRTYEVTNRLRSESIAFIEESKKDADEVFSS
Cytochrome P450 2C9, sequence (P11712 whole entry): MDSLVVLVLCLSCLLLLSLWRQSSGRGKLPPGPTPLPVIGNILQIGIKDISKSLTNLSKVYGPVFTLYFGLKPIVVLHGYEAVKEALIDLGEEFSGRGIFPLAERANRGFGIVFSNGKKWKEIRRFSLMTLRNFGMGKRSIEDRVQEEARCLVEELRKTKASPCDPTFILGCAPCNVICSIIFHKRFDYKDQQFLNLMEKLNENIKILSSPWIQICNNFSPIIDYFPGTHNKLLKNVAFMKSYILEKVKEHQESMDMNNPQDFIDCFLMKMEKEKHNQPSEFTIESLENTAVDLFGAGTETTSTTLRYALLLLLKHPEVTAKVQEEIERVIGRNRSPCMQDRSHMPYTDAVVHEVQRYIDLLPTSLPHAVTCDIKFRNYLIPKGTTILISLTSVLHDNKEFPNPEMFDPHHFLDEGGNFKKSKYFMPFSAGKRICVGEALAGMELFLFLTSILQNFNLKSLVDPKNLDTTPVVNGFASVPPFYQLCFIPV
Cannabinoid receptor 1, sequence (P21554 whole entry): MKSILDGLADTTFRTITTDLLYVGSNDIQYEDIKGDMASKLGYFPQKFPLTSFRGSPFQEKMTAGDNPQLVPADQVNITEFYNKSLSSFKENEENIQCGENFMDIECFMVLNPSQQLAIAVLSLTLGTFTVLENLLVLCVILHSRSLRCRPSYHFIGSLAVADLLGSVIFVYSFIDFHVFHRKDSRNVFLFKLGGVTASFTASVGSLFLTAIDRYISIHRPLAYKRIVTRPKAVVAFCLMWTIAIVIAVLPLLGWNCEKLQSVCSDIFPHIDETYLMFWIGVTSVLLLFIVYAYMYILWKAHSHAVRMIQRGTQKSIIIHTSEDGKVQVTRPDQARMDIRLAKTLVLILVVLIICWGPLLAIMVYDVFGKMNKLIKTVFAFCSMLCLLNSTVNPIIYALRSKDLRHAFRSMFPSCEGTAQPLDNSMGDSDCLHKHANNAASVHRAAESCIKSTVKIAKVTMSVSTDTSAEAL

Row | Sequence | IC50 [1] | Ki [1] | IC50 [2] | Ki [2] | IC50 [3] | Ki [3] | IC50 [4] | Ki [4] | IC50 [5] | Ki [5] | IC50 [6] | Ki [6] | IC50 [7] | Ki [7] | IC50 [8] | Ki [8] | IC50 [9] | Ki [9] | IC50 ([2]; read-out: IC50)
1 | AURANOFIN | Not Active | Not Active | Not Active | Not Active | Not Active | Not Active | Not Active | Not Active | Not Active | Not Active | Not Active | Not Active | Not Active | Not Active | Not Active | Not Active | Not Active | Not Active | 
2 | GADOPENTETATE DIMEGLUMINE | Not Active | Not Active | Not Active | Not Active | Not Active | Not Active | Not Active | Not Active | Not Active | Not Active | Not Active | Not Active | Not Active | Not Active | Not Active | Not Active | Not Active | Not Active | 
3 | GENTAMICIN | Not Active | Not Active | Not Active | Not Active | Not Active | Not Active | Not Active | Not Active | Not Active | Not Active | Not Active | Not Active | Not Active | Not Active | Not Active | Not Active | Not Active | Not Active | 
4 | GRAMICIDIN | Not Active | Not Active |  |  | Not Active | Not Active | Not Active | Not Active | Not Active | Not Active | Not Active | Not Active | Not Active | Not Active | Not Active | Not Active | Not Active | Not Active | 774 nM
5 | NYSTATIN | Not Active | Not Active | Not Active | Not Active | Not Active | Not Active | Not Active | Not Active | Not Active | Not Active | Not Active | Not Active | Not Active | Not Active | Not Active | Not Active | Not Active | Not Active | 

Source: ChEMBL document CHEMBL1909046, “DrugMatrix in vitro pharmacology data”
